Entries after “also recorded” stand apart in the source; their conditions may differ.
Experiments:
HBV [1] = assay: Anti-HBV activity in HepAD38 cells, HBV DNA replication by real-time PCR; type: cell-based, Hepatitis B virus; details: for anti-HBV activity (result in words): HepAD38 system, concentrations up to 10 µM
HBV [2] = details: literature report; cited from earlier work

Row | Compound | anti-HBV activity (result in words) (HBV [1]) | inhibitor of HBV replication (reported in the literature) (HBV [2]) | EC50 (HBV [1]; Hepatitis B virus, HePAD38, read-out: Anti-HBV activity, EC50, HepAD38 cells, inhibition of HBV DNA replication by 50%, tested 0.001 to 10 µM, duplicate) [µM]
1 | CC1(C)CC(=O)C2=C(C1)NC(c1cccnc1)=NC2c1ccc(F)cc1Cl (stereo not drawn) [Compound 1, reference compound] | did not express any activity | submicromolar inhibitor | –
2 | COC(=O)C1=C(CN=[N+]=[N-])NC(c2ccccn2)=NC1c1ccc(F)cc1Cl (stereo not drawn) [Compound 21d] | – | – | 7.5
3 | CC1=C(Cl)C(c2ccc(F)cc2Cl)N=C(c2ccccn2)N1 (stereo not drawn) [Compound 26c] | none of them showed activity; also recorded: inactive | – | –
4 | CC1=C(C(=O)OCC(F)(F)F)C(c2ccc(F)cc2Cl)N=C(c2ccccn2)N1 (stereo not drawn) [Compound 26e] | none of them showed activity | – | –
5 | CC1=C(C(=O)NS(=O)(=O)N(C)C)C(c2ccc(F)cc2Cl)N=C(c2ccccn2)N1 (stereo not drawn) [Compound 26f] | none of them showed activity | – | –

Reference: article PMC5314961 (Bioorganic & medicinal chemistry letters, 2017)
